The assay concerns the target T1, HDAC6 enzyme (Homo sapiens, UniProt Q9UBN7).
T1 construct: transducing full length HDAC6 gene into Sf-9 insect cells; GST; purchased SignalChem; host or cells: Sf-9 insect cells
T1 sequence (Q9UBN7 1-1215): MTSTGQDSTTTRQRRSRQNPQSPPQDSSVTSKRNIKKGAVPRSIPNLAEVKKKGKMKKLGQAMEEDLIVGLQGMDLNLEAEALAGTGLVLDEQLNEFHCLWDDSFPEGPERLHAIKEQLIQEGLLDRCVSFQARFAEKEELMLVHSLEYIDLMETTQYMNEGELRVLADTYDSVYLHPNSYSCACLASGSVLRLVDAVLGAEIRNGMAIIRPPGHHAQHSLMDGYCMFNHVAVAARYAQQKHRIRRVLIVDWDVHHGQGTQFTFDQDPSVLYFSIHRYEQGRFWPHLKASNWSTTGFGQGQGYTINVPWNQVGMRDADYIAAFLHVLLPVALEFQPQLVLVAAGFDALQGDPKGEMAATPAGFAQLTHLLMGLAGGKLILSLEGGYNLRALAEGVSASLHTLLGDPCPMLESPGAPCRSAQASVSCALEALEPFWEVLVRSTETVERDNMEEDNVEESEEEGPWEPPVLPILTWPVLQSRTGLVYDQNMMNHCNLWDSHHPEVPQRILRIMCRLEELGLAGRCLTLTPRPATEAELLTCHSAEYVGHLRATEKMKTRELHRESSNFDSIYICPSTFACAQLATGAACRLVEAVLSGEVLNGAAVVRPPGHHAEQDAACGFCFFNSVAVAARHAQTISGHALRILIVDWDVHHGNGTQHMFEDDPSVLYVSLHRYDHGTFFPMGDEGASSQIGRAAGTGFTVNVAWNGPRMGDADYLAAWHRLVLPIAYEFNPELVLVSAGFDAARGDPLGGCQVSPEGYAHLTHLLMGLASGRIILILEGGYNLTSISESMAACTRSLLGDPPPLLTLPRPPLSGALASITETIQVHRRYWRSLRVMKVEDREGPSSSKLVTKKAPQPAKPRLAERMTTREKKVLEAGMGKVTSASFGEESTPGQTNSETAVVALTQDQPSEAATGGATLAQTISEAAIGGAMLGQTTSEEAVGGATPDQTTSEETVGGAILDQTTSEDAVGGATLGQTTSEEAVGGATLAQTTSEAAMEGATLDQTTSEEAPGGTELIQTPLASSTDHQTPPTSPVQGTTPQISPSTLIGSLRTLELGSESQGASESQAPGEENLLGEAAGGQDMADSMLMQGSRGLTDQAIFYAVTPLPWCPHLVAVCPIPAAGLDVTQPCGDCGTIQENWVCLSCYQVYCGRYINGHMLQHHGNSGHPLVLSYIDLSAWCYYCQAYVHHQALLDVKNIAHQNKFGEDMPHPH
Kind of assay: HDAC6 enzyme inhibitory activity (HDAC-Glo I/II Assay kit). It is filed as biochemical. Particulars: 10 μM; wells without enzyme = 100% inhibition; read-out: HDAC6 inhibitory rate (%) (10 μM). The method in brief: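 Luminescence read-out after 20 min reaction with HDAC-Glo substrate-developer, following 60 min room-temperature preincubation of compound with Sf-9-expressed, GST-purified full-length enzyme. Inhibition is relative to no-enzyme wells set as 100%.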

Turning to `O=C1CCCCN1[C@@H]1CCCC[C@H]1N1Cc2ccc(-c3nnc(C(F)F)o3)cc2C1=O` [Example 20, 6-(5-(difluoromethyl)-1,3,4-oxadiazol-2-yl)-2-((1R,2R)-2-(2-oxopiperidin-1-yl)cyclohexyl)isoindolin-1-one], the inhibition at 10 µM worked out at 100%. Regarding `O=C1OCCCN1[C@@H]1CCCC[C@H]1N1Cc2ccc(-c3nnc(C(F)F)o3)cc2C1=O` [Example 21, 6-(5-(difluoromethyl)-1,3,4-oxadiazol-2-yl)-2-((1R,2R)-2-(2-oxo-1,3-oxazinan-3-yl)cyclohexyl)isoindolin-1-one], the inhibition at 10 µM is 100%.

For the compound `O=C1OCCN1[C@@H]1CCCC[C@H]1N1Cc2ccc(-c3nnc(C(F)F)o3)cc2C1=O` [Example 22, 6-(5-(difluoromethyl)-1,3,4-oxadiazol-2-yl)-2-((1R,2R)-2-(2-oxo-1,3-oxazolidin-3-yl)cyclohexyl)isoindolin-1-one], the inhibition at 10 µM is 98%. The value for `O=C1c2cc(-c3nnc(C(F)F)o3)ccc2CN1[C@@H]1CCCC[C@H]1NC(=O)C1(C(F)F)CC1` [Example 23, 1-(difluoromethyl)-N-((1R,2R)-2-(6-(5-(difluoromethyl)-1,3,4-oxadiazol-2-yl)-1-oxo-1,3-dihydro-2H-isoindol-2-yl)cyclohexyl)cyclopropanecarboxamide] was 99%. Consider `O=C1c2cc(-c3nnc(C(F)F)o3)ccc2CN1[C@@H]1CCCC[C@H]1NC(=O)C1(C(F)(F)F)CCC1` [Example 24, N-((1R,2R)-2-(6-(5-(difluoromethyl)-1,3,4-oxadiazol-2-yl)-1-oxo-1,3-dihydro-2H-isoindol-2-yl)cyclohexyl)-1-(trifluoromethyl)cyclobutanecarboxamide], for which the inhibition at 10 µM is 98%. The value for `COC1(C(=O)N[C@@H]2CCCC[C@H]2N2Cc3ccc(-c4nnc(C(F)F)o4)cc3C2=O)CCC1` [Example 25, N-((1R,2R)-2-(6-(5-(difluoromethyl)-1,3,4-oxadiazol-2-yl)-1-oxo-1,3-dihydro-2H-isoindol-2-yl)cyclohexyl)-1-methoxycyclobutanecarboxamide] was 99%. The same measure for `O=C(CC1(O)CCCC1)N[C@@H]1CCCC[C@H]1N1Cc2ccc(-c3nnc(C(F)F)o3)cc2C1=O` [Example 26, N-((1R,2R)-2-(6-(5-(difluoromethyl)-1,3,4-oxadiazol-2-yl)-1-oxo-1,3-dihydro-2H-isoindol-2-yl)cyclohexyl)-2-(1-hydroxycyclopentyl)acetamide]: 98%; for `O=C(N[C@@H]1CCCC[C@H]1N1Cc2ccc(-c3nnc(C(F)F)o3)cc2C1=O)c1cocn1` [Example 27, N-((1R,2R)-2-(6-(5-(difluoromethyl)-1,3,4-oxadiazol-2-yl)-1-oxo-1,3-dihydro-2H-isoindol-2-yl)cyclohexyl)-1,3-oxazole-4-carboxamide]: 100%. The same measure for `O=C(N[C@@H]1CCCC[C@H]1N1Cc2ccc(-c3nnc(C(F)F)o3)cc2C1=O)C(F)F` [Example 28, N-((1R,2R)-2-(6-(5-(difluoromethyl)-1,3,4-oxadiazol-2-yl)-1-oxo-1,3-dihydro-2H-isoindol-2-yl)cyclohexyl)-2,2-difluoroacetamide]: 100%; for `O=C1c2cc(-c3nnc(C(F)F)o3)ccc2CN1[C@@H]1CCCC[C@H]1NC(=O)C(F)(F)C(F)(F)F` [Example 29, N-((1R,2R)-2-(6-(5-(difluoromethyl)-1,3,4-oxadiazol-2-yl)-1-oxo-1,3-dihydro-2H-isoindol-2-yl)cyclohexyl)-2,2,3,3,3-pentafluoropropanamide]: 101%; for `O=C1COCCN1[C@@H]1CCCC[C@H]1N1Cc2ccc(-c3nnc(C(F)F)o3)cc2C1=O` [Example 30, 6-(5-(difluoromethyl)-1,3,4-oxadiazol-2-yl)-2-((1R,2R)-2-(3-oxomorpholin-4-yl)cyclohexyl) isoindolin-1-one]: 97%. `O=C1NCCCN1[C@@H]1CCCC[C@H]1N1Cc2ccc(-c3nnc(C(F)F)o3)cc2C1=O` [Example 31, 6-(5-(difluoromethyl)-1,3,4-oxadiazol-2-yl)-2-((1R,2R)-2-(2-oxotetrahydropyrimidin-1(2H)-yl)cyclohexyl) isoindolin-1-one]: the inhibition at 10 µM amounted to 97%. Turning to `O=C1c2cc(-c3nnc(C(F)F)o3)ccc2CN1[C@@H]1CCCC[C@H]1NC(=O)C1(C(F)(F)F)CC1` [Example 32, N-((1R,2R)-2-(6-(5-(difluoromethyl)-1,3,4-oxadiazol-2-yl)-1-oxo-1,3-dihydro-2H-isoindol-2-yl)cyclohexyl)-1-(trifluoromethyl)cyclopropanecarboxamide], the inhibition at 10 µM was found to be 101%.

Consider `O=C(N[C@@H]1CCCC[C@H]1N1Cc2ccc(-c3nnc(C(F)F)o3)cc2C1=O)C1CC(F)(F)C1` [Example 33, N-((1R,2R)-2-(6-(5-(difluoromethyl)-1,3,4-oxadiazol-2-yl)-1-oxo-1,3-dihydro-2H-isoindol-2-yl)cyclohexyl)-3,3-difluorocyclobutanecarboxamide], for which the inhibition at 10 µM was found to be 97%. In the case of `CC(C)(C)OC(=O)N1CCCC[C@@H]1CN1Cc2ccc(-c3nnc(C(F)F)o3)cc2C1=O` [Example 34, tert-butyl (2R)-2-((6-(5-(difluoromethyl)-1,3,4-oxadiazol-2-yl)-1-oxo-1,3-dihydro-2H-isoindol-2-yl)methyl)piperidine-1-carboxylate], the inhibition at 10 µM worked out at 98%.

Consider `CC(C)(C)OC(=O)N1CCOC[C@@H]1CN1Cc2ccc(-c3nnc(C(F)F)o3)cc2C1=O` [Example 35, tert-butyl (3S)-3-((6-(5-(difluoromethyl)-1,3,4-oxadiazol-2-yl)-1-oxo-1,3-dihydro-2H-isoindol-2-yl)methyl)morpholine-4-carboxylate], for which the inhibition at 10 µM was 97%.

For the compound `O=C1c2cc(-c3nnc(C(F)F)o3)ccc2CN1C[C@H]1COCCN1` [Example 36, 6-(5-(difluoromethyl)-1,3,4-oxadiazol-2-yl)-2-((3S)-morpholin-3-ylmethyl)isoindolin-1-one], the inhibition at 10 µM came out at 85%. The same measure for `O=C1CCCN1c1ccccc1N1Cc2ccc(-c3nnc(C(F)F)o3)cc2C1=O` [Example 37, 6-(5-(difluoromethyl)-1,3,4-oxadiazol-2-yl)-2-(2-(2-oxopyrrolidin-1-yl)phenyl)isoindolin-1-one]: 99%; for `N[C@@H]1CCCC[C@H]1N1Cc2ccc(-c3nnc(C(F)F)o3)cc2C1=O` [Example 38, 2-((1R,2R)-2-aminocyclohexyl)-6-(5-(difluoromethyl)-1,3,4-oxadiazol-2-yl)isoindolin-1-one]: 91%; for `CCCCC(=O)N[C@@H]1CCCC[C@H]1N1Cc2ccc(-c3nnc(C(F)F)o3)cc2C1=O` [Example 39, N-((1R,2R)-2-(6-(5-(difluoromethyl)-1,3,4-oxadiazol-2-yl)-1-oxo-1,3-dihydro-2H-isoindol-2-yl)cyclohexyl)pentanamide]: 96%. For the compound `CC(F)(F)C(=O)N[C@@H]1CCCC[C@H]1N1Cc2ccc(-c3nnc(C(F)F)o3)cc2C1=O` [Example 40, N-((1R,2R)-2-(6-(5-(difluoromethyl)-1,3,4-oxadiazol-2-yl)-1-oxo-1,3-dihydro-2H-isoindol-2-yl)cyclohexyl)-2,2-difluoropropanamide], the inhibition at 10 µM worked out at 100%.

These data come from patent publication US10435399B2, “HDAC6 inhibitory heterocyclic compound” (TAKEDA PHARMACEUTICAL COMPANY LIMITED, priority 2017, dated 2019).
